Measured values: PMC8465290, “Zoledronic Acid as a Novel Dual Blocker of KIR6.1/2-SUR2 Subunits of ATP-Sensitive K^+ Channels: Role in the Adverse Drug Reactions” (Pharmaceutics, 2021)

Tests used:
[1] = Pharmacovigilance analysis of A.D.R. in EudraVigilance database; design: species or system human
From the text: All coding preferred terms per System Organ Class (S.O.C.) were screened in the EudraVigilance database (http://www.adrreports.eu/ accessed on 1 May 2021), and those potentially associated with KATP channel blocking actions were reported and subject to analysis.
The data were extracted from EudraVigilance, collected, and analyzed on Microsoft 365 Excel software package (Microsoft 10.00). The not specified category was not included in the calculation. The duplication of a specific report per S.O.C. was evaluated manually and excluded from the analysis.
The Proportional Reporting Ratio (P.R.R.) was calculated using the following equation: a/(a+c)/b/(b + d) where a is the reaction of interest to a given drug of interest, b is the reaction of interest for all other drugs in the class, c are all other reactions to a given drug of interest, and d are all other reactions to all other drugs in the class. Signal definition: P.R.R. ≥ 2, a minimum of three ratios/cases for the reaction of interest, X^2 ≥ 4. No signal is identified if P.R.R. is = 1 [47].

[2] = system: KATP channels of femora primary bone cells; test: KATP currents in cell-attached patches of femora (long bone) primary bone cells; format: cell-based, mice
Description: The culture of primary bone cells from adult mice was obtained from long bones (tibia and femur) and calvaria, as previously described. Bones were collected, cleaned, and flushed for removing the internal bone marrow cells. Small bone pieces of around 1 mm^3 were treated with trypsin-EDTA 0.25% (w/v) for 1 h and with 0.2% collagenase solution for an additional hour in a shaking water bath to remove all remaining soft tissue and adherent cells. Clean bone pieces have been cultured in basal medium enriched with 50 µg/mL of ascorbic acid. Osteoblasts from femora (Figure S1A, Supplementary Material) and calvaria chips (Figure S1B) were positive to Alizarin red staining (Figure S1C). The marker of osteoblasts was positive, as tested by the PCR expression analysis on cell pellets (Figure S1D).
(§1) The solutions for whole-cell and cell attached patches were as follows. The pipette solution contained 132 mM KCl, 1 mM ethylene glycol-bis(β-aminoethylether)-N,N,N′,N′-tetraaceticacid (EGTA), 10 mM NaCl, 2 mM MgCl2, 10 mM HEPES, 1 mM Na2ATP, and 0.3 mM Na2GDP (pH = 7.2). The bath solution contained 142 mM NaCl, 2.8 mM KCl, 1 mM CaCl2, 1 mM MgCl2, 11 mM glucose, and 10 mM HEPES (pH = 7.4).
(§2) The whole-cell and cell-attached patch-clamp experiments were performed in asymmetrical K^+ ion concentration in physiological conditions using pipettes with the resistance of 3–5 MΩ.
(§3) Drug actions on the channel currents recorded during instantaneous I/V relationships were investigated by applying a depolarization protocol, in response to voltage pulses from −180 mV to +100 mV (Vm) in 20 mV steps. Currents were expressed as densities (pA/pF) to control for cell size/capacitance differences. All experiments were performed at room temperature (20–22 °C) and sampled at 2 kHz (filter = 1 kHz) using an Axopatch-1D amplifier equipped with a CV-4 headstage (Axon Instruments; Foster City, CA, USA). Drug solutions were applied using a fast perfusion system during the continuous monitoring of the seal resistance at 18–22 °C room temperature in excised patches. In whole-cell and cell-attached patch-clamp experiments, before recording, the cells were equilibrated for 10 s with the solution. Data acquisition and analysis were performed using pCLAMP 10 software suite (Axon Instruments; Foster City, CA, USA), as previously described. Seal resistance was continuously monitored during the experiment.
The percentage of KATP current inhibition induced by ZOL was calculated as (I CTRL-I drug)/(I CTRL-I BaCl2) × −100. The concentration response data of ZOL against different KATP channel currents were fitted by an algorithm using the non-linear dynamic fitting routine of Sigma Plot, 10.0.

[3] = design: method as in PMID 24330023; details: multiple myeloma patients ref 9; cited from earlier work
KIR6.1-SUR1 = biological target: T1, KIR6.1-SUR1 (Homo sapiens, UniProt Q09428+Q15842); test: Whole-cell current of recombinant KIR6.1-SUR1 in Hek293 cells; format: cell-based; details: Hek293 cells KIR6.1-SUR1, whole-cell, −60 mV
T1 construct: expressed in transfected cells; host or cells: Hek293
T1 sequence (Q15842 whole entry): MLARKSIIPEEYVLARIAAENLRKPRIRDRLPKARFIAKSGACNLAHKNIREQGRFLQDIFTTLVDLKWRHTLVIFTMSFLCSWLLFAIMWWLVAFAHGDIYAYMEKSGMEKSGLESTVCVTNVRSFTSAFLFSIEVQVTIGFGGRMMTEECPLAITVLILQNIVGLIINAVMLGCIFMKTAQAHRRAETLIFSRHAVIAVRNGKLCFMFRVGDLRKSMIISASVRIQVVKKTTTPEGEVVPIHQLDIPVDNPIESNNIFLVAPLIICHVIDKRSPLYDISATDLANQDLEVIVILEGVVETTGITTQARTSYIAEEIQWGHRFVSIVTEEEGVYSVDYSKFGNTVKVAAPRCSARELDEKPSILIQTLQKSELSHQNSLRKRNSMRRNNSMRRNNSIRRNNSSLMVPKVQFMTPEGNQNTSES
T1 sequence (Q09428 whole entry): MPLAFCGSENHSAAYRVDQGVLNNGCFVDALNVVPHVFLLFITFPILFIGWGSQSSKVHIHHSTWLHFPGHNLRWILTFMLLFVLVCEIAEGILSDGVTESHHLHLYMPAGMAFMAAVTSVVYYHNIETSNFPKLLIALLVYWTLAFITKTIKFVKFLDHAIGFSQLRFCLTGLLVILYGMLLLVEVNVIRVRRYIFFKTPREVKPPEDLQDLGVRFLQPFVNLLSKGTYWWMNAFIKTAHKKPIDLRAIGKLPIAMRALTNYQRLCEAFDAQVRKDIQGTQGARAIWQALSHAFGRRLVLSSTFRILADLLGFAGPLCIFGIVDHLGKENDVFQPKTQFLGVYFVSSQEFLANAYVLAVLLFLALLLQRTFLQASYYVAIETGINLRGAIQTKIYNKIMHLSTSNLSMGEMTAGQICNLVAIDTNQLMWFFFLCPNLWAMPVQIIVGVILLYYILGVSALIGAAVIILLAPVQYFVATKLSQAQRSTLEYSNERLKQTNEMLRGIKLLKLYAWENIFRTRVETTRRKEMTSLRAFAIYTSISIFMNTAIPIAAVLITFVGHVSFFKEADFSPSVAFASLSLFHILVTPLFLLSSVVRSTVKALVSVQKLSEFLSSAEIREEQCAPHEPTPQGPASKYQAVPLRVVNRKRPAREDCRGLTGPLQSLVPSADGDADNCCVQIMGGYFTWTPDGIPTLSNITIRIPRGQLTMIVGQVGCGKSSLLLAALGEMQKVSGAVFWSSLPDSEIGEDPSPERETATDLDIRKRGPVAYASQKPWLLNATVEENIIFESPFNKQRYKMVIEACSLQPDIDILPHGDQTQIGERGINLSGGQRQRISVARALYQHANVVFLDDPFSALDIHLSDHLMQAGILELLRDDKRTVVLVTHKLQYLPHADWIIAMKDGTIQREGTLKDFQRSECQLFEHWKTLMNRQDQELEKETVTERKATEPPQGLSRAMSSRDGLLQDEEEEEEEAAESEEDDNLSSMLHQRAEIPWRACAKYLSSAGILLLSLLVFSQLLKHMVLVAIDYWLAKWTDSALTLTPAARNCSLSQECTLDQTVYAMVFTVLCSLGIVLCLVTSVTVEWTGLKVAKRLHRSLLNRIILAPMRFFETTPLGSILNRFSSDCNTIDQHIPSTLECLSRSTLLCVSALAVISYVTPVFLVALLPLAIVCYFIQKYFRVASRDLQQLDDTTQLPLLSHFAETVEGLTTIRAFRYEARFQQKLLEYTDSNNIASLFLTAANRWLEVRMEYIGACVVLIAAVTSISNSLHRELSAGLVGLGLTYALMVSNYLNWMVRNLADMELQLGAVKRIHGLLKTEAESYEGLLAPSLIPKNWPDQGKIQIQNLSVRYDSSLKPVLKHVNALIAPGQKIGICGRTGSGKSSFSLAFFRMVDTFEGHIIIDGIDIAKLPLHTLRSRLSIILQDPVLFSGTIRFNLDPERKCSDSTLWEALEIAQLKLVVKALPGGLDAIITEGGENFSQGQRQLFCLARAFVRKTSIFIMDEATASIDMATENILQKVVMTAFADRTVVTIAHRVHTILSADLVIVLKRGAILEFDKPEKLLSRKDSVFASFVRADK
Description: (§4) For experiments on recombinant channel subunits, Hek293 cells were transfected with the relevant plasmids, as previously described.
as §1
CaCl2 was added to the pipette solutions to give a free Ca^2+ ion concentration of 1.6 × 10^−6 M in whole-cell experiments. The calculation of the free Ca^2+ ion concentration in the pipette was performed using the MaxChelator software (Stanford University; Stanford, CA, USA). […]
Drug actions on the channel currents recorded during instantaneous I/V relationships were investigated by applying a depolarization protocol, in response to voltage pulses from −180 mV to +100 mV (Vm) in 20 mV steps. Currents were expressed as densities (pA/pF) to control for cell size/capacitance differences. […] Seal resistance was continuously monitored during the experiment.
(§5) The percentage of KATP current inhibition induced by ZOL was calculated as (I CTRL-I drug)/(I CTRL-I BaCl2) × −100. […]

KIR6.1-SUR2B = biological target: T2, KIR6.1-SUR2B (Homo sapiens, UniProt O60706+Q15842); test: Whole-cell current of recombinant KIR6.1-SUR2B in Hek293 cells; format: cell-based
T2 construct: expressed in transfected cells; host or cells: Hek293
Description: as §4, §1
(§6) CaCl2 was added to the pipette solutions to give a free Ca^2+ ion concentration of 1.6 × 10^−6 M in whole-cell experiments. The calculation of the free Ca^2+ ion concentration in the pipette was performed using the MaxChelator software (Stanford University; Stanford, CA, USA).
as §2
as §3, with “Data acquisition and analysis were performed using pCLAMP 10 software suite (Axon Instruments; Foster City, CA, USA), as previously described.” left out
as §5

KIR6.2-SUR2A = biological target: T3, KIR6.2-SUR2A (Homo sapiens, UniProt O60706+Q14654); test: Whole-cell current of recombinant KIR6.2-SUR2A in Hek293 cells; format: cell-based
T3 construct: expressed in transfected cells; host or cells: Hek293
T3 sequence (Q14654 whole entry): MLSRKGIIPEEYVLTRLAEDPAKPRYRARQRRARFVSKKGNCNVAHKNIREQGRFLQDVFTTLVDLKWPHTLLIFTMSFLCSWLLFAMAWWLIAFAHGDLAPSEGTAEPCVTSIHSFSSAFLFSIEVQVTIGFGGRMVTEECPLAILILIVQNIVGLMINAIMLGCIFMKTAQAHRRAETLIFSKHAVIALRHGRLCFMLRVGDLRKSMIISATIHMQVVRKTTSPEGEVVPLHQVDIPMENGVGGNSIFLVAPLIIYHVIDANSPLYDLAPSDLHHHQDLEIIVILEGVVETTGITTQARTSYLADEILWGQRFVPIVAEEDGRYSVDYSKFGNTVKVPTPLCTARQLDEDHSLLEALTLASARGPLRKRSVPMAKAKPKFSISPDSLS
T3 sequence (O60706 whole entry): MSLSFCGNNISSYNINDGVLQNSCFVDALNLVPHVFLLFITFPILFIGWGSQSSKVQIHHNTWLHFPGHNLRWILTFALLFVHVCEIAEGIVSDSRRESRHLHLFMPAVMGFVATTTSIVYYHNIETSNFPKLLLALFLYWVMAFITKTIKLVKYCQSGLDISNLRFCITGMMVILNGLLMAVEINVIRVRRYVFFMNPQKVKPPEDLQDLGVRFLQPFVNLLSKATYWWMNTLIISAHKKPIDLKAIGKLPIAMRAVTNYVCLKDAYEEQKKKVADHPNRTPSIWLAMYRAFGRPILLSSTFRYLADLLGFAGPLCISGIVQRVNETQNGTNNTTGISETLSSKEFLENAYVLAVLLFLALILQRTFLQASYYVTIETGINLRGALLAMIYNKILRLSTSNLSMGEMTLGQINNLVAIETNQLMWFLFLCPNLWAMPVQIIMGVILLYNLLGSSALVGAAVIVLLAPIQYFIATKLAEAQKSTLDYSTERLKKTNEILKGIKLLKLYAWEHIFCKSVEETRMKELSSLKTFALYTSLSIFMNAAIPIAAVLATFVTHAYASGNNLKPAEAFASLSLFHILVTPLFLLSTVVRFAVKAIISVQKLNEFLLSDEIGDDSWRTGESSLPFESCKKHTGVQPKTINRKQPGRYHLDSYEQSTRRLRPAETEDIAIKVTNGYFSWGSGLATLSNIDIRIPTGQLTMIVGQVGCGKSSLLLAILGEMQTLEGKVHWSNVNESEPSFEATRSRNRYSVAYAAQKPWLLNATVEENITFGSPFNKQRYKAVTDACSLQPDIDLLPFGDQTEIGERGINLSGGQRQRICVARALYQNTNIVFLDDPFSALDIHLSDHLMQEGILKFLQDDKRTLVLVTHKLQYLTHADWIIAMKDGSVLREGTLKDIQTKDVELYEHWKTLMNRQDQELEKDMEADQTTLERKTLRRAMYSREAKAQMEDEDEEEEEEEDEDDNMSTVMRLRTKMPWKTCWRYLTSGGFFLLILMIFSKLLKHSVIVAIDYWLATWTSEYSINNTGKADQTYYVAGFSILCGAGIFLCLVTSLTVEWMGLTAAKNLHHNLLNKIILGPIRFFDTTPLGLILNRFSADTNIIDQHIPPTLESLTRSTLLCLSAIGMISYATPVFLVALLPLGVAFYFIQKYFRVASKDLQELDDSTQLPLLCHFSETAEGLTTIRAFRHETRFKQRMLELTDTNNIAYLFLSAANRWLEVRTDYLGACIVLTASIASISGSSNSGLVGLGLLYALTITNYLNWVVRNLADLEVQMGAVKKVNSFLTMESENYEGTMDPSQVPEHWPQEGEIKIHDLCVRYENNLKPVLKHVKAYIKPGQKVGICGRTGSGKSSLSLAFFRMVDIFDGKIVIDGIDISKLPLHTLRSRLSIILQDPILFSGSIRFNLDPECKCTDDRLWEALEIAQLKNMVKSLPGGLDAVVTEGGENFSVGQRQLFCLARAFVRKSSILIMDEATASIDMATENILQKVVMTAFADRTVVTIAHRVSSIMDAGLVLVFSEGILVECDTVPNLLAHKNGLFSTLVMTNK
Description: as §4, §1, §6, §2
as §3, with “Data acquisition and analysis were performed using pCLAMP 10 software suite (Axon Instruments; Foster City, CA, USA), as previously described.” left out
as §5

[4] = design: method as in EudraVigilance database; details: cited from earlier work
KIR6.2-SUR1 = biological target: T4, KIR6.2-SUR1 (Homo sapiens, UniProt Q09428+Q14654); test: Whole-cell current of recombinant KIR6.2-SUR1 in Hek293 cells; format: cell-based; details: Hek293 cells KIR6.2-SUR1, whole-cell
T4 construct: expressed in transfected cells; host or cells: Hek293
T4 sequence (Q14654 whole entry): as the sequence (Q14654 whole entry) above
T4 sequence (Q09428 whole entry): as the sequence (Q09428 whole entry) above
Description: as §4, §1, §6, §2
as §3, with “Data acquisition and analysis were performed using pCLAMP 10 software suite (Axon Instruments; Foster City, CA, USA), as previously described.” left out
as §5

[5] = system: KATP channels of Soleus (SOL) muscle fibers; test: KATP currents in excised macro-patches from SOL muscle fibers (patch-clamp); format: cell-based, mice; details: excised macropatches
From the text: (§7) In accordance with 3R RULE (DIRECTIVE 2010/63/EU) Replace, Reduce, Refine, bone and skeletal muscle were collected from wild-type male mice C57BL sacrificed for other scientific purposes (Ethic Committee name, Organization for Animal Health O.P.B.A. University of Bari, Italy, project: 7282018PR). The fibers were enzymatically isolated from Extensor digitorum longus (EDL) and Soleus (SOL) muscles, as previously described.
(§8) The solutions for excised patch experiments on isolated muscle fibers were as follows. The patch-pipette solution contained 150 mM KCl, 2 mM CaCl2, and 1 mM Mops (pH 7.2); the bath solution contained 150 mM KCl, 5 mM EGTA, and 10 mM Mops (pH 7.2).
(§9) The KATP currents of native skeletal muscle fibers were recorded in excised macro patches using pipettes of 0.9–1.2 MΩ of resistance on isolated skeletal muscle fibers in symmetrical 150 mM K^+ ions concentrations on both sides of the membrane during pulse going from 0 mV to −60 mV (Vm), as previously described.
as §3, with “Data acquisition and analysis were performed using pCLAMP 10 software suite (Axon Instruments; Foster City, CA, USA), as previously described.” left out
as §5

[6] = biological target: T5, KATP channels of Extensor digitorum longus (EDL) muscle fibers (Mus musculus, UniProt P70170+Q61743); test: KATP currents in excised macro-patches from EDL muscle fibers (patch-clamp); format: cell-based, mice; details: excised macropatches
T5 construct: The KATP currents of native skeletal muscle fibers were recorded in excised macro patches; from tissue; host or cells: isolated Extensor digitorum longus muscle fibers of C57BL mice
From the text: as §7, §8, §9
as §3, with “Data acquisition and analysis were performed using pCLAMP 10 software suite (Axon Instruments; Foster City, CA, USA), as previously described.” left out
as §5

[7] = within the KATP channel blockers
[8] = musculoskeletal and connective tissues disorders S.O.C.
[9] = all ages ref EudraVigilance database
[10] = Femora primary bone cells, cell-attached patches

## Cc1ccc(S(=O)(=O)NC(=O)NN2CC3CCCC3C2)cc1 (centres unmarked) [gliclazide]
[1]; [7]
  Proportional Reporting Ratio (P.R.R.) muscular weakness: ≥ 2

## CC(C)[C@H]1CC[C@H](C(=O)N[C@H](Cc2ccccc2)C(=O)O)CC1 [nateglinide]
[1]
  hypoglycemia, % of the A.D.R. per S.O.C.: 77.9%
[1]; within musculoskeletal and connective tissue disorders
  rhabdomyolysis, % of A.D.R.: 18.4%
[1]; [7]
  Proportional Reporting Ratio (P.R.R.) arrhythmias: ≥ 2
  Proportional Reporting Ratio (P.R.R.) hypoglycemia: ≥ 2
  Proportional Reporting Ratio (P.R.R.) palpitations: ≥ 2
  Proportional Reporting Ratio (P.R.R.) rhabdomyolysis: ≥ 2

## CCCCNC(=O)NS(=O)(=O)c1ccc(C)cc1 [tolbutamide]
[2]; C-A patches, nanomolar concentrations, Figure 1C
  inhibition of KATP currents in C-A patches (in words): less effective inhibitor

## O=P(O)(O)C(O)(Cn1ccnc1)P(=O)(O)O [Zoledronic acid]
[3]
  median overall survival: 52 months
KIR6.1-SUR1
  Imax %: * −40 ± 8.8 n = 3 cells %
KIR6.1-SUR2B
  IC50: 0.39 nM
  Slope: 0.59 ± 0.04
KIR6.1-SUR2B; −60 mV
  Imax %: −94 ± 4.8 n = 15 cells %
KIR6.2-SUR2A
  IC50: 7100 nM
  Slope: * 0.12 ± 0.7
KIR6.2-SUR2A; −60 mV
  Imax %: −83.7 ± 1.2 n = 15 cells %
[1]
  hypoglycemia, % of the A.D.R. per S.O.C.: 1.63%
[1]; cardiac A.D.R.
  arrhythmia, % of cardiac A.D.R.: 8.1%
  atrial fibrillation, % of cardiac A.D.R.: 17.9%
  congestive heart failure, % of cardiac A.D.R.: 12.6%
  myocardial infarction, % of cardiac A.D.R.: 12%
  palpitations, % of cardiac A.D.R.: 13.2%
  sinus tachycardia, % of cardiac A.D.R.: 5.3%
  tachycardia, % of cardiac A.D.R.: 12.2%
[1]; [8]
  arthralgia, % of the A.D.R.: 16%
  muscular weakness, % of the A.D.R. per S.O.C.: 2.7%
  myalgia, % of the A.D.R.: 10%
  osteonecrosis of the jaw, % of the total A.D.R.: 47.9%
[1]; vascular S.O.C.
  blood pressure increase, % of A.D.R.: 16%
  hypertension, % of A.D.R.: 25%
  hypotension, % of A.D.R.: 18%
[1]; [7]
  Proportional Reporting Ratio (P.R.R.) arrhythmias: ≥ 2
  Proportional Reporting Ratio (P.R.R.) atrial fibrillation: ≥ 2
  Proportional Reporting Ratio (P.R.R.) diarrhea: ≥ 2
  Proportional Reporting Ratio (P.R.R.) hypertension: ≥ 2
  Proportional Reporting Ratio (P.R.R.) hypoglycemia: lower risk
  Proportional Reporting Ratio (P.R.R.) muscular weakness: ≥ 2
  Proportional Reporting Ratio (P.R.R.) myalgia: ≥ 2
  Proportional Reporting Ratio (P.R.R.) osteonecrosis of jaw: ≥ 2
  Proportional Reporting Ratio (P.R.R.) rhabdomyolysis: lower risk
[4]; [9]
  osteonecrosis of the jaw, affected females: 4792
  osteonecrosis of the jaw, affected males: 3184
[4]; all indications, up to 1 May 2021 ref EudraVigilance database
  adverse reaction cases reported: 35,201 cases
[4]; cardiac A.D.R. ref EudraVigilance database
  arrhythmia, number of reports: 197
KIR6.2-SUR1
  IC50: 21000 nM
  Slope: * 0.18 ± 0.09
KIR6.2-SUR1; −60 mV
  Imax %: * −60.13 ± 4.1 n = 15 cells %
[2]; [10]
  IC50: 0.16 nM
  Imax %: −104.8 ± 8.7 n = 21 cells %
  Slope: 0.31 ± 0.07
[5]
  IC50: 0.21 nM
[5]; concentration-response fit
  Slope: 0.29 ± 0.05
[5]; −60 mV, symmetrical 150 mM K+
  Imax %: −99.4 ± 5 n = 21 fibers %
[6]
  IC50: 1200 nM
[6]; concentration-response fit
  Slope: 0.38 ± 0.07
[6]; −60 mV, symmetrical 150 mM K+
  Imax %: −100.1 ± 9.3 n = 17 fibers %
